Results published in patent publication US5508180A, “Biocatalytic oxidation using soybean peroxidase” (Enzymol International, Inc., priority 1994, dated 1996).

Legend:
soybean peroxidase [1] = biological target: T1, soybean peroxidase (Glycine max, UniProt O22443); test: Demethylation (oxidation) of methoxybenzenes by soybean peroxidase, absorbance of quinone products; assay type: biochemical; settings: for dA per minute (289 nm) / dA per minute (250 nm) / dA per minute (310 nm): pH 2
T1 construct: secreted heme glycoprotein, reported 37 kDa
Experimental: (§1) 0.1 ml soybean peroxidase (120 purpurogallin units/ml) stock solution was added to 3 ml veratryl alcohol solution (1 g veratryl alcohol in 750 ml water) and vortexed in a test tube. 20 μl peroxide stock solution was added, mixed and the solution poured into a 1 cm path, 4 ml quartz cuvette. Using a Shimadzu UV-160 double beam recording spectophotometer, the change in absorbance of the sample compared to a reference cuvette containing 3 ml veratryl alcohol solution only was monitored every minute by scanning wavelengths from 500 to 200 nm. The peak wavelength of 308 nm was identified as veratryl aldehyde and was used for further monitoring. The kinetics of the reaction were determined from the linear portion of the increase in absorbance.
Using assay methods described in Example 15, three methoxybenzenes were tested for oxidation by soybean peroxidase (SBP). These compounds were: 1,4-Dimethoxybenzene (DMB), 1,2,3-Trimethoxybenzene (TMB) and 1,3,5-Trimethoxybenzene (TMB). Stock solutions were prepared by heating 1 g (0.5g 1,3,5-TMB) in 750 ml water to 60 deg C on a stirring hot plate, allowing the solution to cool to room temperature and adjusting the pH to 2 with HCl. Assays were performed as described in Example 1. Initially, a scan of wavelengths from 500 to 200 nm every minute was done during each substrate oxidation to find suitable wavelengths to monitor for the corresponding quinone products.
For example, a comparison of the rates of oxidation of 1,4-dimethoxybenzene at pH 2 where the pH was adjusted with HCl in one case and with HNO3 in a second case is shown in Table 11.

soybean peroxidase [2] = biological target: T1, soybean peroxidase; test: Oxidation of veratryl alcohol to veratryl aldehyde by soybean peroxidase and hydrogen peroxide, absorbance at 308 nm; assay type: biochemical
Experimental: Preparation of Soybean Peroxidase Solution: Purified soybean peroxidase was lyophilized to give a powder at 120 purpurogallin units (as defined by Sigma) per mg. Purification was done with addition of 5 mM CaCl2, but without buffers or other non-volatile substances which would carry over with the enzyme in the powder. Lyophilization typically yielded 4.5 g from 60 ml. […] Using the extinction coefficient reported for heme in HRP ([…] at 403 nm in 0.1M Tris pH 7), and the reported molecular weight of SBP (37,000), the solid was 60% peroxidase by weight.
Preparation of peroxide stock solution: 1.5 ml of 30% hydrogen peroxide was diluted to 100 ml with water to provide a 0,147M stock solution of hydrogen peroxide.
as §1
To determine the effects of pH on the oxidation of veratryl alcohol, a veratryl alcohol stock solution containing 20 mM CaCl2 was divided into 9 samples and each sample treated with HCl to provide 9 samples ranging in pH from 1.25 to 3.3 ml of solution was withdrawn from each sample and the change in absorbance (dA) of veratryl alcohol in each sample was measured at 308 nm at room temperature.
To determine the effects of temperature on veratryl alcohol oxidation at a pH of 2, 5 samples of a veratryl alcohol stock solution without CaCl2 were obtained and the absorbance of veratryl alcohol was measured at varying temperatures. The samples were incubated in a circulating water bath and cuvette blocks were preheated by connection with the same bath. The test cuvette was left empty in the block to equilibrate prior to assay. Enzyme and peroxide stock solutions were stored at room temperature. Assay was initiated by pouring the alcohol solution into the cuvette, adding 0.1 ml enzyme, inverting, adding 20 ul peroxide, inverting, and immediately starting to record change in absorbance.

T1 sequence (O22443 27-332): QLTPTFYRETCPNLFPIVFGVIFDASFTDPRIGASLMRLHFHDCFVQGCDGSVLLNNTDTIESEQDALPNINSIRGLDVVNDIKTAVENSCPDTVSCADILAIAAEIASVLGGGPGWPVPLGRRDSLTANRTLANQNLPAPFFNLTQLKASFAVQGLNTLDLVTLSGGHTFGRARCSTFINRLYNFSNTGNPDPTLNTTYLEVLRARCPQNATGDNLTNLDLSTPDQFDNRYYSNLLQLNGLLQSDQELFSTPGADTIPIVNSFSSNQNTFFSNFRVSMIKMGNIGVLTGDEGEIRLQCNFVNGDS

COc1cccc(OC)c1OC [1,2,3-TMB, 1,2,3-Trimethoxybenzene]
dA per minute (289 nm) (soybean peroxidase [1]; 25 °C): 0.0147
dA per minute (289 nm) (soybean peroxidase [1]; 35 °C): 0.0272
dA per minute (289 nm) (soybean peroxidase [1]; 45 °C): 0.0893
dA per minute (289 nm) (soybean peroxidase [1]; 55 °C): 1.1161
dA per minute (289 nm) (soybean peroxidase [1]; 65 °C): 0.0301
dA per minute (289 nm) (soybean peroxidase [1]; 75 °C): 0.0142

COc1ccc(CO)cc1OC [veratryl alcohol, 3,4-dimethoxybenzyl alcohol]
activity (dA per minute at 308 nm) (soybean peroxidase [2]; 0.1M KCl/HCl buffer at pH 2): 0.2265
dA per minute at 308 nm (soybean peroxidase [2]; 25 °C, pH 2, without CaCl2): 1.427
dA per minute at 308 nm (soybean peroxidase [2]; 35 °C, pH 2, without CaCl2): 2.358
dA per minute at 308 nm (soybean peroxidase [2]; 45 °C, pH 2, without CaCl2): 3.17
dA per minute at 308 nm (soybean peroxidase [2]; 55 °C, pH 2, without CaCl2): 0.3467
dA per minute at 308 nm (soybean peroxidase [2]; 65 °C, pH 2, without CaCl2): 0.0018
dA per minute at 308 nm (soybean peroxidase [2]; pH 1.25, 20 mM CaCl2, room temperature): 0.0045
dA per minute at 308 nm (soybean peroxidase [2]; pH 1.35, 20 mM CaCl2, room temperature): 0.0361
dA per minute at 308 nm (soybean peroxidase [2]; pH 1.65, 20 mM CaCl2, room temperature): 0.2358
dA per minute at 308 nm (soybean peroxidase [2]; pH 1.85, 20 mM CaCl2, room temperature): 1.611
dA per minute at 308 nm (soybean peroxidase [2]; pH 2.15, 20 mM CaCl2, room temperature): 0.945
dA per minute at 308 nm (soybean peroxidase [2]; pH 2.35, 20 mM CaCl2, room temperature): 0.2243
dA per minute at 308 nm (soybean peroxidase [2]; pH 2.55, 20 mM CaCl2, room temperature): 0.1093
dA per minute at 308 nm (soybean peroxidase [2]; pH 2.85, 20 mM CaCl2, room temperature): 0.0587
dA per minute at 308 nm (soybean peroxidase [2]; pH 3, 20 mM CaCl2, room temperature): 0.0119
pH optimum (soybean peroxidase [2]; veratryl alcohol oxidation): around 2

COc1ccc(OC)cc1 [1,4-DMB, 1,4-Dimethoxybenzene]
dA per minute (250 nm) (soybean peroxidase [1]; 25 °C): 1.0134
dA per minute (310 nm) (soybean peroxidase [1]; 25 °C): 0.3566
dA per minute (250 nm) (soybean peroxidase [1]; 35 °C): 1.1306
dA per minute (310 nm) (soybean peroxidase [1]; 35 °C): 0.3942
dA per minute (250 nm) (soybean peroxidase [1]; 45 °C): 1.817
dA per minute (310 nm) (soybean peroxidase [1]; 45 °C): 0.745
dA per minute (250 nm) (soybean peroxidase [1]; 55 °C): 2.73
dA per minute (310 nm) (soybean peroxidase [1]; 55 °C): 1.088
dA per minute (250 nm) (soybean peroxidase [1]; 65 °C): 2.99
dA per minute (310 nm) (soybean peroxidase [1]; 65 °C): 0.437
dA per minute (250 nm) (soybean peroxidase [1]; 75 °C): 0.883
dA per minute (310 nm) (soybean peroxidase [1]; 75 °C): 0.129
dA per minute (250 nm) (soybean peroxidase [1]; 85 °C): 0.0619
dA per minute (310 nm) (soybean peroxidase [1]; 85 °C): 0.0237
dA per minute (250 nm) (soybean peroxidase [1]; 95 °C): 0.0777
dA per minute (310 nm) (soybean peroxidase [1]; 95 °C): 0.0296
dA 250 nm per min (soybean peroxidase [1]; pH 2 adjusted with HCl): 1.275
dA 310 nm per min (soybean peroxidase [1]; pH 2 adjusted with HCl): 0.3273
dA 250 nm per min (soybean peroxidase [1]; pH 2 adjusted with HNO3): 0.7202
dA 310 nm per min (soybean peroxidase [1]; pH 2 adjusted with HNO3): 0.2934
